Columns and labels:
Type in all cases: cell-based, mouse
VE-cadherin and PECAM1 = assay: Real time analysis of VE-cadherin and Pecam1 transcripts, CCM1 knock out cells; conditions: PTC209
Procedure: RNA extraction was performed both with (A) RNeasy kits (Promega) or (B) RNAeasy Mini Kit (QIAGEN). The latter allows also the extraction of proteins from the same sample. The RNA (500 ng) was reverse transcribed with random hexamers (High Capacity cDNA Archive kits; Applied Biosystems) in a final volume of 30 uL. Reaction were made with a thermocycler (Eppendorf) 10 min at 25° C. followed by 2 hours at 37° C. cDNA (5 ng) was amplified in triplicate in a reaction volume of 15 uL using TaqMan Gene Expression Assays (Applied Biosystems) in a ABI/Prism 7900 HT using a pre PCR step of 10 min at 95° C., followed by 40 cycles of 15 seconds at 95° C. and 60 seconds at 60° C. For each sample, the expression level was determined with the comparative threshold cycle (Ct) method, and normalized to the housekeeping genes encoding 18S, glyceraldehyde-3-phosphate dehydrogenase (GAPDH) and hypoxanthine-guanine phosphoribosyltransferase (hprt1). Ct or threshold cycle, represents the PCR cycle at which an increase in reporter fluorescence above a base-line signal can first be detect.
Also for CCM1 model, the inventors tested the effect of Bmi1 inhibition on junction organisation. […]

LEF1 = assay: Immunofluorescence of LEF1, CCM3 knock out cells; conditions: PTC209 vs DMSO
From the text: The inventors started to analysed interaction between Bmi1 and β-catenin pathway. By immunofluorescence analysis on wild type and CCM3 knock out cells treated with PTC209 and DMSO as control, as already mentioned, the inventors checked expression of LEF1, a transcription factor that is directly activated by β-catenin and is responsible for transcriptional activation of Axin2 (Behrens et al., 1996), to see whether Bmi1 inhibition interfered with β-catenin pathway activation.

VE-cadherin = assay: Western blot analysis of VE-cadherin, CCM3 knock out cells; conditions: 72 hours
Procedure: Cells were seeded 6.3×10^4 cells/cm^2. The day after, PTC209 and UNC1999 were added to the confluent cells. Drugs were left for one or three days depending on the aim of the experiment. Final concentrations used for the two drugs were: 1 uM PTC209 and 5 uM UNC1999.
Confluent cells were lysed with boiling modified Laemi sample Buffer (2% SDS, 20% glycerol, and 125 mM Tris-HCl, pH 6.8). Lysates were incubated for 10 minutes at 100° C. to allow proteins denaturation. Protein concentration was estimated using the BCA Protein Assay Kit (Pierce). Equal amount of proteins was loaded on a gel, separated by SDS-PAGE and transferred to a Protran Nitrocellulose Membrane (Whatman) 0.2 um pores. The membranes were blocked for 1 hour at RT in Tris Buffered Saline (TBS: NaCl 150 mM, Tris-HCl 10 mM pH 7.4) plus 0.1% Tween-20 containing 5% BSA or milk. […] Membranes were rinsed three times with TBST for 5 minutes each and specific bindings were detected by enhanced chemiluminescence (ECL) system (Amersham Bioscience) using ChemiDoc XRS gel imaging system (Bio-Rad).
Experiment with combined PTC209 and UNC1999 treatments was repeated with the same experimental conditions described before and junction organisation was analysed through VE-cadherin staining and protein expression analysis (FIG. 19).

[1] = tested on: EndMT markers (Klf4, Sca1 and Fsp1); assay: Immunofluorescence analysis of EndMT markers, CCM1 knock out cells; conditions: CCM1 knockout cells; PTC209 vs DMSO
Procedure: Treatment with PTC209 was performed with the same experimental conditions used for CCM3 model. After treatment cells were analysed by western blot (FIG. 9), real time (FIG. 10) and immunofluorescence (FIG. 11) analysis. […] This observation resembled what was previously observed for human patients as well as for CCM3 mouse model, namely that mutation in Ccm3 led to a more severe phenotype, with higher risk of cerebral haemorrhage and more severe malformations, compare to patients with mutation in Ccm1 and Ccm2 (Denier et al., 2006).

[2] = tested on: EndMT markers (Klf4, Sca1 and Fsp1); assay: RT-PCR of EndMT markers, freshly isolated brain endothelial cells knockout for CCM3; conditions: freshly isolated brain endothelial cells CCM3fl/fl+TAT-Cre; PTC209 72 hours from the day after recombination
From the text: Brain-derived ECs were isolated from VECPAC/CCM3^fl/fl/R26-Confetti. Brains were processed with two different MiltenyiBiotec kits depending on the age at which the mice were sacrificed: “Adult Brain Dissociation Kit”, for […] 7-days old mice, or “Neural Tissue Dissociation Kit” for less than 7-days old mice. All protocols and data sheet are available at www.milteniyibiotec.com.
Recombination of the loxP-flanked genes was induced by treating cells the day after the first splitting (1:2) with 100 ug/mL TAT-Cre-recombinase for 60 minutes in HyClone™ ADCF-MAb medium (GE Healthcare) without serum followed by 100 uM chloroquine for 30 minutes. The cells were washed with HyClone™ ADCF-MAb medium and cultured with complete medium.
RNA extraction was performed both with (A) RNeasy kits (Promega) or (B) RNAeasy Mini Kit (QIAGEN). The latter allows also the extraction of proteins from the same sample. […] For each sample, the expression level was determined with the comparative threshold cycle (Ct) method, and normalized to the housekeeping genes encoding 18S, glyceraldehyde-3-phosphate dehydrogenase (GAPDH) and hypoxanthine-guanine phosphoribosyltransferase (hprt1). Ct or threshold cycle, represents the PCR cycle at which an increase in reporter fluorescence above a base-line signal can first be detect. […]

COc1cc(Br)c(Nc2nc(-c3c(C)nc4ncccn34)cs2)c(Br)c1 [PTC209, N-(2,6-dibromo-4-methoxyphenyl)-4-(2-methylimidazo[1,2-a]pyrimidin-3-yl)thiazol-2-amine]
VE-cadherin and PECAM1 transcript levels (gene expression analysis) (VE-cadherin and PECAM1): did not show any rescue
LEF1 (immunofluorescence) (LEF1): reduced
VE-cadherin protein expression level (western blot) (VE-cadherin): did not show any rescue
upregulation of Klf4, Sca1 and Fsp1 (relative fluorescence intensity) [1]: inhibited
Klf4 expression (RT-PCR) [2]: not downregulated
Sca1 and Fsp1 expression (RT-PCR) [2]: strongly reduced

Source: patent US12377092B2, “Polycomb inhibitors and uses thereof” (FONDAZIONE ISTITUTO FIRC DI ONCOLOGIA MOLECOLARE (IFOM), priority 2017, dated 2025)
